Measurements reported in ChEMBL document CHEMBL5050844 (2019).

Experiments:
[1] = target: T1, E3 ubiquitin-protein ligase CBL-B (Homo sapiens, UniProt Q13191); assay: Binding affinity towards N-terminal biotinylated Avi-tagged human CBL-B (36 to 427 residues) measured by surface plasmon resonance assay
[2] = Induction of anti-CD3 antibodies-stimulated human T cell activation at 1 uM assessed fold increase in CD25 expression measured by ELISA assay; format: functional, T cell line; note: reference of the scale not given here
[3] = Induction of anti-CD3 antibodies-stimulated human T cell activation at 8 uM assessed fold increase in IL-2 secretion measured by ELISA assay; format: functional, T cell line; note: reference of the scale not given here
[4] = Induction of anti-CD3/CD28 antibodies-stimulated human T cell activation at 1 uM assessed fold increase in IL-2 secretion measured by ELISA assay; format: functional, T cell line
[5] = Induction of anti-CD3/CD28 antibodies-stimulated human T cell activation at 4 uM assessed fold increase in IL-2 secretion measured by ELISA assay; format: functional, T cell line
[6] = Induction of anti-CD3/CD28 antibodies-stimulated human T cell activation at 4 uM assessed fold increase in CD25 expression measured by ELISA assay; format: functional, T cell line
[7] = Induction of anti-CD3 antibodies-stimulated human T cell activation at 1 uM assessed fold increase in IL-2 secretion measured by ELISA assay; format: functional, T cell line; note: reference of the scale not given here
[8] = Induction of anti-CD3/CD28 antibodies-stimulated human T cell activation at 0.3 uM assessed fold increase in CD25 expression measured by ELISA assay; format: functional, T cell line
[9] = Induction of anti-CD3 antibodies-stimulated human T cell activation at 8 uM assessed fold increase in CD25 expression measured by ELISA assay; format: functional, T cell line; note: reference of the scale not given here
[10] = Induction of anti-CD3/CD28 antibodies-stimulated human T cell activation at 1 uM assessed fold increase in CD25 expression measured by ELISA assay; format: functional, T cell line
[11] = Induction of anti-CD3/CD28 antibodies-stimulated human T cell activation at 0.3 uM assessed fold increase in IL-2 secretion measured by ELISA assay; format: functional, T cell line
[12] = target: T1, E3 ubiquitin-protein ligase CBL-B; assay: Inhibition of N-terminal Avi-tagged human CBL-B (36 to 427 residues) incubated with 60 nM Src kinase for 1.5 hrs followed by incubation with fluorescently labeled UbcH5B-Ub for 1 hr and measured by TR-FRET assay; format: single protein

T1 sequence (Q13191 whole entry, the tested form may be a part): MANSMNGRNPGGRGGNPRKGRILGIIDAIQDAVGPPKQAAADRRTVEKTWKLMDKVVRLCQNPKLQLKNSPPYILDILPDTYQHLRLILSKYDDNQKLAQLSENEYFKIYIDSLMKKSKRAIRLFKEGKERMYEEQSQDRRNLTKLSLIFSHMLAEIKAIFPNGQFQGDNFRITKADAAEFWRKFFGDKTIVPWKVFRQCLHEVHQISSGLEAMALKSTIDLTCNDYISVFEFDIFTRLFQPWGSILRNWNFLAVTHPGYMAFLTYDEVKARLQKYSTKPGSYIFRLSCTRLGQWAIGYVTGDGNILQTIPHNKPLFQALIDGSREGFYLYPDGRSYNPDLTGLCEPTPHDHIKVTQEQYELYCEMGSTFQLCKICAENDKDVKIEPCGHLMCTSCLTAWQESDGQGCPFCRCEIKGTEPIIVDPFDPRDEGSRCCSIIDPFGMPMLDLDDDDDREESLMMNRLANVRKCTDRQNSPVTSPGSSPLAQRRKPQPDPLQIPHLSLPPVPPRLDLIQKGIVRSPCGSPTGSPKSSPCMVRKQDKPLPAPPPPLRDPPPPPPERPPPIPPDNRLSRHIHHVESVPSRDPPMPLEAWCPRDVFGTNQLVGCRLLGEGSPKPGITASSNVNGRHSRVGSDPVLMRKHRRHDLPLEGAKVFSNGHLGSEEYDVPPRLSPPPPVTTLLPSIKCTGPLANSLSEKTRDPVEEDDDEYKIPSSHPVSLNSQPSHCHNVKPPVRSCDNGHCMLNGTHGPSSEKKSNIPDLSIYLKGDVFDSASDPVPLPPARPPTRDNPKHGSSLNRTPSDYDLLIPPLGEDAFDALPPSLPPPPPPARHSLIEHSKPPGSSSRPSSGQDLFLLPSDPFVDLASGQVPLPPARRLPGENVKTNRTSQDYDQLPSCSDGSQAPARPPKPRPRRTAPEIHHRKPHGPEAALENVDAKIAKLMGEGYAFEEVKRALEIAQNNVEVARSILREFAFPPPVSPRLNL

Row | Structure (SMILES) | Kd [1] | fold change (FC) [2] | fold change (FC) [3] | fold change (FC) [4] | fold change (FC) [5] | fold change (FC) [6] | fold change (FC) [7] | fold change (FC) [8] | fold change (FC) [9] | fold change (FC) [10] | fold change (FC) [11] | IC50 [12]
1 | Cn1cnnc1CC(C)(C)c1cccc(N2Cc3c(cc(C4CC4)cc3C(F)(F)F)C2=O)c1 | < 100 nM | 0.801 | >=0.201 | 2.51 | 5 | 1.31 | 0.101 | 1.01 | >=1.001 | 1.01 | 1.01 | < 100 nM
2 | CNc1cc([C@H](C)Cc2nncn2C)cc(N2Cc3c(cccc3C(F)(F)F)C2=O)n1 | < 100 nM | 0.601 | 0.151 | 1.01 | 5 | 1.31 | 0.051 | 1.01 | >=1.001 | 1.01 | 1.01 | < 100 nM
3 | C[C@H](Cc1nncn1C)c1cccc(N2Cc3c(cc(CN4CC(O)C(F)(F)C4)cc3C(F)(F)F)C2=O)c1 (stereo not given in full) | < 100 nM | >=1.001 | >=0.201 | 5 | >=7.5 | 1.31 | 0.101 | 1.01 | >=1.001 | 1.31 | 2.51 | < 100 nM
4 | C[C@@H]1[C@@H](c2nncn2C)[C@H]1c1cccc(N2Cc3c(cccc3C(F)(F)F)C2=O)c1 | < 100 nM | >=1.001 | >=0.201 | 2.51 | 5 | 1.31 | 0.101 | >=1.76 | >=1.001 | 1.01 | >=7.5 | < 100 nM
5 | Cc1cc(C(=O)Nc2cccc([C@@](C)(F)C(F)(F)c3nncn3C)c2)nc(C2CC2)n1 | < 100 nM | 0.801 | >=0.201 | 2.51 | >=7.5 | 1.31 | 0.101 | 1.01 | >=1.001 | 1.31 | 1.01 | 
6 | C[C@H](Cc1nncn1C)c1cccc(NC(=O)c2cc(C(=O)N3CC(O)C(F)(F)C3)ccn2)c1 (stereo not given in full) | > 10000 nM | 0.601 | >=0.201 | <=1 | 2.51 | 1.31 | >=0.201 | <=1 | 0.801 | <=1 | <=1 | 
